Values after ≈ are worked out from the molar mass of the structure shown. “Also recorded” adds a separate entry of the source. Where two headings read alike, the source gives them in different places. Each block holds one compound with its values, some of them ahead of it.
Columns and labels:
human cadaver epidermis [1] = conditions: pH 6.8
[2] = Solubilities of molsidomine in various solvents (saturation at 32° C., HPLC); assay type: physicochemical
Procedure: Molsidomine powder was weighed on weighing paper and transferred into the sample vial. Solvent was transferred into the vial followed by insertion of a small Teflon-coated magnetic stirring bar. The sample vial was screw-capped and placed on top of a multiple stirring system obtained from Florida Scientific, Inc. and housed in an incubation oven at 32° C. The sample solutions were examined for saturation. More molsidomine was added to the solutions until saturation was achieved.
The saturated solutions were filtered through a micro filter to remove excess solid molsidomine. The filtered samples were then assayed for molsidomine concentration by the HPLC analytical method.
In this way, the solubility of molsidomine in the particular vehicle(s) was estimated.

[3] = cited from earlier work
[4] = test system: patients with coronary heart disease; conditions: cited from earlier work
[5] = cited from earlier work; remark: listed apart in the source
[6] = in vivo; cited from earlier work
coronary strips = conditions: cited from earlier work; for dependence of vasodilation action on cysteine: presence / absence of cysteine
[7] = oral dose of 2 mg; cited from earlier work
[8] = test system: soluble guanylate cyclase; conditions: by nitric oxide liberated from the active metabolite SIN-1A; cited from earlier work
human skin = conditions: in vivo; cited from earlier work
human cadaver epidermis [9] = assay: Skin flux through human cadaver epidermis (modified Franz vertical diffusion cell, 32° C)

skin flux from aqueous solution (human cadaver epidermis [1]): 9.7±1.9 μg/hr-cm^2 | solubility ([2]; aqueous buffer, Phosphate buffer pH 5.68, read-out: Solubilities): 12.3 ± 1.8 mg/mL (≈ 50.8 mM) | solubility ([2]; organic solvent or mixture, Propylene Glycol (PG), read-out: Solubilities): 85.5 ± 3.9 mg/mL (≈ 353 mM) | solubility ([2]; organic solvent or mixture, propylene glycol and propylene glycol with 10% of oleic acid, lauryl alcohol or PGML, read-out: solubility): ~90 mg/mL (≈ 372 mM) | solubility ([2]; pH 6.8, aqueous buffer, Phosphate buffer pH 6.80, read-out: Solubilities): 12.1 ± 1.3 mg/mL (≈ 50 mM) | solubility ([2]; propylene glycol:lauryl alcohol (10%), organic solvent or mixture, PG:Lauryl Alcohol (10%), read-out: Solubilities): 89.3 ± 1.5 mg/mL (≈ 369 mM) | solubility ([2]; propylene glycol:oleic acid (10%), organic solvent or mixture, PG:Oleic Acid (10%), read-out: Solubilities): 88.1 ± 0.7 mg/mL (≈ 364 mM) | solubility ([2]; propylene glycol:pgml (10%), organic solvent or mixture, PG:PGML (10%), read-out: Solubilities): 92.9 ± 2.8 mg/mL (≈ 384 mM)
SMILES: CCOC(=O)[N-]c1cn(N2CCOCC2)n[o+]1 [Molsidomine, N-5-ethoxycarbonyl-3-morpholinosydnonimine]
Chemical stability (in words) ([3]; aqueous solution of pH 5 to 7): very stable; also recorded: most stable | t90 ([3]; pH 1-2, 20° C.): 38 days | t90 ([3]; pH 4, 20° C.): 250 days | t90 ([3]; pH 5-7, 20° C.): 950 days | t90 ([3]; pH 10, 20° C.): 400 days | t90 ([3]; pH 11, 20° C.): 40 days | Photosensitivity ([3]; particularly in sunlight): photosensitive | treatment and prevention of anginal pectoris ([4]; daily oral dosing of 2 mg for 3 to 4 times, clinical studies): effective | anti-anginal effect ([4]; human, in vivo): sustained anti-anginal effect | duration of anti-anginal effects ([4]; single oral dose of 2 mg, patients with coronary heart disease): 3 to 5 h | Saturated solubility ([5]; Glycerin, 25° C.): 1.80% | Saturated solubility ([5]; Glycol salicylate, 25° C.): 15.1% | Saturated solubility ([5]; Isopropyl myristate, 25° C.): 0.09% | Saturated solubility ([5]; Octyl.decyl oil, 25° C.): 0.36% | Saturated solubility ([5]; Oleic Acid, 25° C.): 1.37% | Saturated solubility ([5]; PEG 400, 25° C.): 5.23% | Solubility (in words) ([5]; in CHCl3): Freely soluble | Solubility (in words) ([5]; in dil HCl, ethanol, ethyl acetate and methanol): Soluble | Solubility (in words) ([5]; in ether, petr ether): very slightly soluble | Solubility (in words) ([5]; in propylene glycol and a variety of organic solvents): soluble | Solubility (in words) ([5]; in water, acetone, benzene): sparingly soluble | metabolism [6]: can be metabolized to SIN-1 | tolerance (coronary strips): insignificant tolerance | total clearance [7]: 46,000 ml/hr

SMILES: N#CCN(N=O)N1CCOCC1 [SIN-1A]
activation of soluble guanylate cyclase [8]: activates the soluble guanylate cyclase | dependence of vasodilation action on cysteine (coronary strips): active in both the presence and absence of cysteine

SMILES: CCCCCCCCCCCCOP(=O)(O)O [mono-dodecyl phosphate (DDPO4), phosphoric acid mono-dodecyl ester]
human skin irritation potential (human skin): very low human skin irritation potential | permeation enhancement of molsidomine (increment of skin flux) (human cadaver epidermis [9]; addition of 10% DDPO4 to PGML, FIG. 3): four times increment | pirsidomine skin permeation enhancement (human cadaver epidermis [9]; pirsidomine): showed pirsidomine skin permeation enhancement

SMILES: O=[N+]([O-])OCC(CO[N+](=O)[O-])O[N+](=O)[O-] [nitroglycerin]
tolerance (coronary strips): tolerance toward the drug developed in coronary strips can be antagonized by cysteine | dependence of vasodilation action on cysteine (coronary strips): depends on the presence of cysteine

From US5308625A, “Enhancement of transdermal drug delivery using monoalkyl phosphates and other absorption promoters” (priority 1992, dated 1994)
